“Also recorded” adds a separate entry of the source.
How the values were obtained:
[1] = test system: splenocytes stimulated with anti-CD3/anti-CD28, concanavalin-A or LPS; assay: Splenocyte cytokine response at 7 d after stroke, Cryab−/− mice; type: in vivo, mouse; conditions: Cryab treated vs PBS treated Cryab−/− mice
Procedure: The effects of Cryab treatment on splenocytes isolated from PBS treated wild-type and Cryab^−/− mice and Cryab treated Cryab^−/− mice were assessed at 7 d after stroke. Splenocytes from PBS treated Cryab^−/− mice produced more pro-inflammatory IL-2, IL-17 and TNF when stimulated with anti-CD3/anti-CD28 than both PBS-treated wild-type mice and Cryab-treated Cryab^−/− mice splenocytes (FIG. 12e). When stimulated by concanavalin-A, splenocytes from PBS treated Cryab^−/− mice produced more pro-inflammatory IFN-γ, TNF, IL-12p40 and less anti-inflammatory IL-10 compared to the splenocytes from both PBS treated wild-type and Cryab treated Cryab^−/− mice (FIG. 12e). When stimulated with LPS, splenocytes from PBS treated Cryab^−/− mice produced more TNF and less IL-10 compared to the splenocytes from both PBS treated wild-type mice and Cryab treated Cryab^−/− mice (FIG. 12e).

HSPB5−/− EAE mice = conditions: WT and HSPB5 deficient mice; previously published data; cited from earlier work
mice with EAE = assay: EAE in C57BL/6J mice (MOG35-55/CFA, pertussis toxin), neurological impairment scoring; type: in vivo, mouse
Procedure: It was tested if the chaperone function of residues 73-92 of HspB5 were capable of reducing the symptoms of experimental allergic encephalomyelist (EAE), by inducing EAE in 9-week old female C57BL/6J by immunized subcutaneously with an emulsion containing 200 μg myelin oligodendrocyte glycoprotein 35-55 (MOG35-55; […] (SEQ ID NO:24)) in saline and an equal volume of complete Freund's adjuvant. Intraperitoneal injection of pertussis toxin at 0 and 48 h post-immunization results in paralysis beginning at day 12.

stroke in wild-type mice = assay: Cerebral ischemia (30 min middle cerebral artery filament occlusion) in wild-type mice, lesion size; type: in vivo, mouse; conditions: vs PBS
Procedure: Because the restoration of plasma Cryab in Cryab^−/− mice decreased the lesion size, we next investigated whether administration of Cryab into wild-type mice would have a similar effect. When Cryab was administered beginning 1 h before stroke onset and then at 12 hrs after, the lesion size at 2 d was not different between PBS and Cryab treated wild-type mice groups (FIG. 14a).
(§1) Induction of cerebral ischemia. We used 12 to 14-week-old, male mice weighing 25-30 g. The weights of the animals in all experimental groups were similar. We used filament occlusion model of cerebral ischemia as described. Briefly, mice were anesthetized with 2% isoflurane in a mixture of 20% oxygen and 80% air. After the surgical exposure, the left external and common carotid arteries were permanently ligated. Then, a 7-0 mm, silicon rubber-coated, reusable monofilament (Doccol Inc, 70SPRe2045) was inserted into the left common carotid artery and advanced towards the left internal carotid artery 9-10 mm after the left carotid bifurcation. The core body temperature was checked by a rectal probe and maintained at 37° C. throughout the surgery by a heating pad and lamp. The cerebral blood flow was measured by a laser Doppler flow-meter and at least 80% reduction compared to presurgical baseline values was achieved after the insertion of the filament. The flowmeter probe was placed 2 mm posterior and 5-6 mm lateral to the bregma on the skull. The reperfusion was achieved by withdrawal of the filament 30 min after the insertion. After the closure of the surgical wound and the mice were returned to their cages with free access to water and food.

[2] = test system: pro-inflammatory cytokines of MOG stimulated splenocytes; assay: Peripheral immune cell activation: cytokine production by MOG stimulated splenocytes of treated MOG immunized mice (ELISA); design: species or system mouse; conditions: mice treated in vivo; splenocytes from MOG immunized mice
Procedure: Peripheral immune cell activation and cytokine analysis. Spleens and lymph nodes were isolated from mice 9 days after immunization with MOG35-55 and CFA. Spleens were mechanically disrupted to isolate single cell splencytes suspension. Cells were cultured in flat bottomed, 96-well plates in media (RPMI 1640 supplemented with […] L-glutamine, 1 mM sodium pyruvate, 0.1 mM non-essential amino acids, 100 U/mL penicillin, 0.1 mg/mL streptomycin, 0.5 uM 2-mercaptoethanol, and 10% fetal calf serum). Cells were stimulated with MOG35-55 (5 ug/mL, 10 ug/mL, and 20 ug/mL). For all activation assays, splenocytes were pooled from three mice per group and triplicate wells were plated. Supernatants of cells were collected at the time of peak production for each cytokine (48 hrs: IL-2, IL-12p40, IL-6; 72 hrs: TNFα and IFNγ; 96 hrs: IL-17; 120 hrs: IL-10). Cytokines were measured in the supernatants using anti-mouse OPTEIA ELISA kits (BD Pharmingen for IFNγ, IL-10, IL-2, IL-6, and IL-12p40; R&D Systems for IL-17 and TNFα).

[3] = test system: splenocytes stimulated with concanavalin A or LPS; assay: Splenocyte cytokine response at 7 d after stroke, wild-type mice; type: in vivo, mouse; conditions: vs PBS
Procedure: Effects of Cryab treatment on immune system. The effects of Cryab treatment on the splenocyte cytokine response were assessed at 7 d after stroke in wild-type mice. The total number of splenocytes in PBS and Cryab treated mice was equivalent at 7 d after stroke (data not shown). When stimulated by concanavalin A, splenocytes from Cryab treated mice produced fewer pro-inflammatory IL-2, IL-17, IFN-g, IL-12p40, IL-6 and more anti-inflammatory IL-10 than the splenocytes from PBS treated mice (FIG. 14d-i). When stimulated by LPS, Cryab-treated mice splenocytes produced fewer pro-inflammatory IL-6 and TNF than the splenocytes from PBS-treated mice (FIG. 14j, k).

stroke in Cryab−/− mice = assay: Cerebral ischemia (middle cerebral artery occlusion) in Cryab−/− mice, lesion size by silver stain; type: in vivo, mouse; conditions: IP 1 h before stroke, 12 h, 24 h and daily for seven days, vs PBS treated Cryab−/−
Procedure: To test if increased plasma Cryab after stroke was beneficial, Cryab^−/− mice were given intraperitoneal injections of recombinant Cryab protein starting 1 h before stroke onset and continuing at 12 h, 24 h and daily afterwards for seven days in total.
as §1, with “After the closure of the surgical wound and the mice were returned to their cages with free access to water and food.” left out

brain T cells = assay: Brain T cell populations at 7 d after stroke (flow cytometry), wild-type mice; type: in vivo, mouse; conditions: vs PBS
Procedure: The T cell populations in brain were analyzed at 7 d after stroke. […] However, when we quantitatively analyzed how many cytokine molecules existed per cell, we found fewer IL-17-PE molecules per CD3^+, CD4^+ and gd-T cells in Cryab-treated mice brains compared to PBS-treated ones (FIG. 15k, l).

For αB-crystallin [HSPB5], the “peripheral inflammatory response (splenocyte cytokines)” value [1] is listed as “modulates the peripheral inflammatory response”, the “treatment of EAE by full-length protein” value (HSPB5−/− EAE mice) is listed as “able to treat not only WT mice, but also HSPB5 deficient mice” and the “clinical paralysis / clinical scores of mice with EAE” value (mice with EAE; intraperitoneal 10-50 μg every other day starting at the peak of disease) is listed as “significant reduction of clinical paralysis”. The “symptoms of EAE” value (mice with EAE; intravenous administration) was “dramatic reduction of symptoms”, the “symptoms after cessation of the administration” value (mice with EAE; mouse, in vivo) was “returned soon after cessation” and the “blood pressure, pulse rate, plasma glucose and lactate levels and arterial blood gas analysis” value (stroke in wild-type mice; before, during or after cerebral ischemia) was “no differences”. The “lesion size at 2 d after stroke (TTC staining)” value (stroke in wild-type mice; wild-type mice, given 1 h before stroke onset and 12 hrs after) was “not different”, the “lesion size at 7 d after stroke (silver stain)” value (stroke in wild-type mice; wild-type mice, given 1 h before, 12 h, 24 h after and daily for seven days) was “significantly reduced” and the “lesion size at 7 d after stroke (silver stain)” value (stroke in wild-type mice; wild-type mice, initial treatment 12 h after stroke onset, listed as Cryab) was “reduced stroke pathology; also recorded: conferred neuroprotection”. For the same substance, the “production of pro-inflammatory cytokines by MOG stimulated splenocytes” value [2] was “reduction”, the “IL-6 production by splenocytes” value ([3]; LPS stimulation) was “fewer” and the “TNF production by splenocytes” value ([3]; LPS stimulation) was “fewer”. For the same substance, the “IFN-g production by splenocytes” value ([3]; concanavalin A stimulation) was “fewer”, the “IL-2 production by splenocytes” value ([3]; concanavalin A stimulation) was “fewer” and the “IL-6 production by splenocytes” value ([3]; concanavalin A stimulation) was “fewer”. For the same substance, the “IL-10 production by splenocytes” value ([3]; concanavalin A stimulation) was “more”, the “IL-12p40 production by splenocytes” value ([3]; concanavalin A stimulation) was “fewer” and the “IL-17 production by splenocytes” value ([3]; concanavalin A stimulation) was “fewer”. The “total number of splenocytes” value [3] was “equivalent”, the “lesion size at 7 d after stroke” value (stroke in Cryab−/− mice) was “significantly decreased; also recorded: confers neuroprotection” and the “IL-17-PE molecules per CD3+, CD4+ and gd-T cells” value (brain T cells; brain) was “fewer”. For the same substance, the “number of IFN-g-PE molecules per CD3+ or CD4+ cells” value (brain T cells; brain) was “no differences”, the “percentages of IFN-g+ cells among CD3+ or CD4+ cells” value (brain T cells; brain) was “no differences” and the “percentages of IL-17+ cells among CD3+, CD4+ or gd-T cells” value (brain T cells; brain) was “no differences”. The “total number of the brain CD3+, CD4+, CD8+ and gd-T cells” value (brain T cells) was “did not change”.

— patent publication US10034915B2, “Small heat shock proteins and active fragments thereof as a therapy for inflammation and ischemia” (The Board of Trustees of the Leland Stanford Junior …, priority 2011, dated 2018)
